Values quoted from earlier work as cited in patent publication US7935500B2, “Identifying calcineurin activators for treatment of schizophrenia” (Massachusetts Institute of Technology, priority 2002, dated 2011).

Assays:
IP3 receptors [1] = conditions: literature studies [29], [30]
IP3 receptors [2] = conditions: literature studies [29], [30]; remark: listed apart in the source
ryanodine receptor [3] = conditions: literature study [28]
ryanodine receptor [4] = conditions: literature study [28]; remark: listed apart in the source

## CCN(CC)CCCC(C)Nc1ccnc2cc(Cl)ccc12 (stereo not shown) [chloroquine]
IP3 receptors [1]
  effect on calcium influx: decrease calcium influx
IP3 receptors [2]
  effect on binding of [3H]-IP3 to membranes: decrease binding of [3H]-IP3 to membranes

## Cc1ccc(C(=O)Nc2ccc(S(=O)(=O)O)c3cc(S(=O)(=O)O)cc(S(=O)(=O)O)c23)cc1NC(=O)c1cccc(NC(=O)Nc2cccc(C(=O)Nc3cc(C(=O)Nc4ccc(S(=O)(=O)O)c5cc(S(=O)(=O)O)cc(S(=O)(=O)O)c45)ccc3C)c2)c1 [suramin]
Ryanodine receptor [3]
  effect on probability of the channel being open (calcium influx): increase the probability of the channel being open
Ryanodine receptor [4]
  effect on binding of [3H]-ryanodine to membranes: increase binding of [3H]-ryanodine to membranes
